{"source": "paper PMC4728661", "about": "“Cancer Prevention and Health Benefices of Traditionally Consumed Borago officinalis Plants” (Nutrients, 2016)", "key": {"D. melanogaster": {"tested_on": "D. melanogaster", "assay": "Genotoxicity: Somatic Mutation and Recombination Test (SMART), wing spot test, simple treatments", "format": "in vivo, Drosophila melanogaster", "method": "The D. melanogaster system was selected for the determination of the safety of B. officinalis consumption as a well-recognized method to analyze vegetable complex mixtures using SMART [31, 32]. This test was used in order to evaluate the genotoxic and antigenotoxic activity of B. officinalis leaves and petioles as well as their selected bioactive compounds [33]. This activity was measured by direct visualization of the occurrence of recessive mutations in the wing hairs of two different D. melanogaster strains. Flies from experiments carried these visible wing genetic markers: the flare (flr) strain flr^3/ln (3LR) TM3, Bd^s and the multiple wing-hair (mwh) strain mwh/mwh. The marker flare (flr^3, 3_38.3) produces individual malformed hairs and the marker multiple wing hairs (mwh, 3_0.3) produces multiple hairs per cell. Larvae used in treatments come from two types of crosses: the standard cross with flr^3/TM3, Bd^S females mated to mwh/mwh males and the reciprocal cross.\nOptimal fertile flies were anesthetized under CO2 narcotisation for cross selection and then placed in new vials for fertilization. After that, hybrid eggs from crossing were collected over an 8 h period and emerged larvae (72 ± 4 h later) were cleaned up for a few seconds in sterile distilled water to remove feeding medium rests. For genotoxicity analysis (simple treatments), groups of 100 larvae were transferred into vials containing 0.85 g of Drosophila Instant Medium (Formula 4–24, Carolina Biological Supply, Burlington, NC, USA) wetted with 4 mL of a mixture of distilled water and increasing concentrations of samples: B. officinalis BF and WF (1.25, 2.5, and 5 mg·mL^−1), RO (0.35, 0.7, 1.39 and 2.78 mM), SY (0.16, 0.32, 0.63 and 1.26 mM), SI (0.15, 0.29, 0.58 and 1.16 mM) and the mixture of these three bioactive compounds at each concentration assayed individually. Bioactive compound concentrations were chosen on the basis of their known content in B. officinalis species. […] Larvae were fed on these media until pupation (about 48 h). After emergence, resulting adult flies were sacrificed under CO2 narcotisation and stored in a 70% ethanol solution in sterile water. Emerged adults were counted for toxicity evaluation and transheterozygous wings (mwh flr^+/mwh^+ flr^3) were mounted on microscope slides and wing hair mutations (spots) scored, using a photonic microscope (Nikon) at 400× magnification for genotoxicity and antigenotoxicity evaluation.\nFor the evaluation of genotoxic effects, the frequencies of spots per fly of each treated series were compared to the concurrent negative control for each class of mutational clone as well as between simple and combined treatments for the same concentration comparisons. […] A multiple-decision procedure was used to categorize results as positive, inconclusive or negative. Inconclusive and positive results were evaluated by the non-parametric U test of Mann, Whitney and Wilcoxon. The inhibition percentage (IP) of genotoxicity was calculated from the total frequencies of spots per wing, following this formula [42]: IP = (genotoxin alone − sample + genotoxin) × 100/(genotoxin alone)(2)"}, "[1]": {"assay": "Cytotoxicity: HL-60 growth/viability, Trypan Blue dye exclusion", "format": "cell-based, human", "settings": "human, HL-60 cells (acute promyelocytic leukemia); HL-60, 72 h treatment, Trypan Blue; read-out: IC50 (cytotoxic effect)", "method": "The human acute promyelocytic leukemia cell line HL-60 was routinely grown in suspension in RPMI medium (Invitrogen, Madrid, Spain) containing glutamine ([…], Sigma-Aldrich, St. Louis, MO, USA), antibiotics (100IU penicillin mL^−1 and 100 μg streptomycin mL^−1, Sigma-Aldrich) and supplemented with 10% heat-inactivated foetal bovine serum (Linus, Cultek, Madrid, Spain) and placed in an incubator (Shel Lab, Cornelious, OR, USA) with a 5% CO2 humidified atmosphere at 37 °C [36]. HL-60 cells were subcultured every 2–3 days to maintain logarithmic growth and they were allowed to grow for 48 h before use. Cultures were plated at a density of 12.5 × 10^4 cells mL^−1 in 40 mL culture flasks (25 cm^2). Cytotoxic activity was measured as growing inhibition or decreased viability on HL-60 cells following a previous protocol modified by us. […] Cells were counted after 72 h treatment. Tested concentrations were calculated according to those used for in vivo assays to equal the range of tested doses. Untreated cultures were used as negative control. Cell viability was determined by the Trypan Blue dye exclusion test. Cells were stained with an equal volume of Trypan Blue commercial solution (Sigma-Aldrich) and counted using a hemocytometer at room temperature under a light inverted microscope (AE30/31, Motic, Barcelona, Spain). Cytotoxic effect evaluation was determined after each culture incubation period, establishing a growth curve and determining IC50 values by regression analysis of the curves. Viability estimated regressions of leukemia cells are presented as a survival percentage with respect to controls at 72 h growth and plotted as mean viability ± standard error of at least three independent replicas for each treatment and concentration."}, "rats": {"tested_on": "rats", "design": "method as in PMID 16026713", "settings": "doses of 2 and 8 mg·kg^−1, brain tissue and peripheral blood; cited from earlier work"}}}
{"smiles": "O=C(/C=C/c1ccc(O)c(O)c1)O[C@H](Cc1ccc(O)c(O)c1)C(=O)O", "note": "[RO, rosmarinic acid]", "values": [{"measurement": "Genotoxicity in the Drosophila wing spot test (in words)", "setting": "D. melanogaster; simple treatments, all concentrations", "result": "not mutagenic"}, {"measurement": "Diagnosis, Small Single Spots 1–2 Cells m = 2", "setting": "D. melanogaster; simple, 0.35 mM RO", "result": "−"}, {"measurement": "Diagnosis, Total Spots m = 2", "setting": "D. melanogaster; simple, 0.35 mM RO", "result": "−"}, {"measurement": "Mutation rate, Large Single Spots >2 Cells m = 5", "setting": "D. melanogaster; simple, 0.35 mM RO", "result": 0, "unit": "spots/wing"}, {"measurement": "Mutation rate, Small Single Spots 1–2 Cells m = 2", "setting": "D. melanogaster; simple, 0.35 mM RO", "result": "0.38 (6) spots/wing"}, {"measurement": "Mutation rate, Total Spots m = 2", "setting": "D. melanogaster; simple, 0.35 mM RO", "result": "0.38 (6) spots/wing"}, {"measurement": "Mutation rate, Twin Spots m = 5", "setting": "D. melanogaster; simple, 0.35 mM RO", "result": 0, "unit": "spots/wing"}, {"measurement": "Diagnosis, Small Single Spots 1–2 Cells m = 2", "setting": "D. melanogaster; simple, 0.7 mM RO", "result": "−"}, {"measurement": "Diagnosis, Total Spots m = 2", "setting": "D. melanogaster; simple, 0.7 mM RO", "result": "−"}, {"measurement": "Diagnosis, Twin Spots m = 5", "setting": "D. melanogaster; simple, 0.7 mM RO", "result": "−"}, {"measurement": "Mutation rate, Large Single Spots >2 Cells m = 5", "setting": "D. melanogaster; simple, 0.7 mM RO", "result": 0, "unit": "spots/wing"}, {"measurement": "Mutation rate, Small Single Spots 1–2 Cells m = 2", "setting": "D. melanogaster; simple, 0.7 mM RO", "result": "0.21 (7) spots/wing"}, {"measurement": "Mutation rate, Total Spots m = 2", "setting": "D. melanogaster; simple, 0.7 mM RO", "result": "0.26 (9) spots/wing"}, {"measurement": "Mutation rate, Twin Spots m = 5", "setting": "D. melanogaster; simple, 0.7 mM RO", "result": "0.06 (2) spots/wing"}, {"measurement": "Diagnosis, Small Single Spots 1–2 Cells m = 2", "setting": "D. melanogaster; simple, 1.39 mM RO", "result": "−"}, {"measurement": "Diagnosis, Total Spots m = 2", "setting": "D. melanogaster; simple, 1.39 mM RO", "result": "−"}, {"measurement": "Diagnosis, Twin Spots m = 5", "setting": "D. melanogaster; simple, 1.39 mM RO", "result": "−"}, {"measurement": "Mutation rate, Large Single Spots >2 Cells m = 5", "setting": "D. melanogaster; simple, 1.39 mM RO", "result": 0, "unit": "spots/wing"}, {"measurement": "Mutation rate, Small Single Spots 1–2 Cells m = 2", "setting": "D. melanogaster; simple, 1.39 mM RO", "result": "0.18 (4) spots/wing"}, {"measurement": "Mutation rate, Total Spots m = 2", "setting": "D. melanogaster; simple, 1.39 mM RO", "result": "0.23 (5) spots/wing"}, {"measurement": "Mutation rate, Twin Spots m = 5", "setting": "D. melanogaster; simple, 1.39 mM RO", "result": "0.05 (1) spots/wing"}, {"measurement": "Diagnosis, Large Single Spots >2 Cells m = 5", "setting": "D. melanogaster; simple, 2.78 mM RO", "result": "−"}, {"measurement": "Diagnosis, Small Single Spots 1–2 Cells m = 2", "setting": "D. melanogaster; simple, 2.78 mM RO", "result": "−"}, {"measurement": "Diagnosis, Total Spots m = 2", "setting": "D. melanogaster; simple, 2.78 mM RO", "result": "−"}, {"measurement": "Mutation rate, Large Single Spots >2 Cells m = 5", "setting": "D. melanogaster; simple, 2.78 mM RO", "result": "0.05 (2) spots/wing"}, {"measurement": "Mutation rate, Small Single Spots 1–2 Cells m = 2", "setting": "D. melanogaster; simple, 2.78 mM RO", "result": "0.16 (6) spots/wing"}, {"measurement": "Mutation rate, Total Spots m = 2", "setting": "D. melanogaster; simple, 2.78 mM RO", "result": "0.21 (8) spots/wing"}, {"measurement": "Mutation rate, Twin Spots m = 5", "setting": "D. melanogaster; simple, 2.78 mM RO", "result": 0, "unit": "spots/wing"}, {"measurement": "IC50 at 72 h", "setting": "[1]", "result": 70, "unit": "µM"}, {"measurement": "Genotoxic effect, comet assay", "setting": "rats", "result": "no genotoxic effect"}]}
